Experiment [1] has as its target T1, recombinant human ALK5 (TGF-βR1) protein (Homo sapiens, UniProt P36897).
T1 construct: purchased Life Technologies PR9075A
T1 sequence (P36897 34-503): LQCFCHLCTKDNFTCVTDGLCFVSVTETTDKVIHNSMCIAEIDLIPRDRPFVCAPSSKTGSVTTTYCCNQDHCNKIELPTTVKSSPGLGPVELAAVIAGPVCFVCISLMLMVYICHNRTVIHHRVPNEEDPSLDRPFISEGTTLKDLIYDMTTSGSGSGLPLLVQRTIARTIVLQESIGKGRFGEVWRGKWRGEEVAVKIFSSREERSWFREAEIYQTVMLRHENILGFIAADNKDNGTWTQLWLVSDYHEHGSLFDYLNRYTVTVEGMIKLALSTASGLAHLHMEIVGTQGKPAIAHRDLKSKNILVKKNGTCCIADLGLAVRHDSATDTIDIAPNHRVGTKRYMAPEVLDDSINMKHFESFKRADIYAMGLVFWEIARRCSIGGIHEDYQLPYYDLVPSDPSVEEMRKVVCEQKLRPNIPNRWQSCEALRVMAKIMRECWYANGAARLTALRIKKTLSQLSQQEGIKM
As to the kind of experiment: Biochemical ALK5 (TGF-βR1) assay to measure pKi (LANCE Ultra ULight kinase assay). To be noted: apparent pKi from pIC50 by Cheng-Prusoff, read-out: ALK5 pKi (converted). An outline of the steps:
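Compounds (10 μM to 25 pM) were preincubated 60 min at room temperature with enzyme, then reactions were started with ATP (125 μM stock, 5× final) and run 60 min at 37 °C. EDTA-containing Eu-anti-phospho-Topo IIα (Thr1342) antibody stopped the reaction; TR-FRET read at 665 nm. pIC50 from 4-parameter fit, converted to pKi via Cheng-Prusoff.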
(Time-resolved FRET reads energy transfer from a long-lived donor to a nearby acceptor.)

In experiment [2] the test system is TGF-β-stimulated SMAD3 phosphorylation in BEAS-2B cells. As to the kind of experiment: Cellular ALK5 potency assay, inhibition of TGF-β stimulated pSMAD3 formation in BEAS-2B cells. The class given is cell-based. The conditions noted are these: Homo sapiens; inhibition of TGF-β stimulated pSMAD3 formation, BEAS-2B cells; read-out: BEAS2B pIC50 (converted). In outline: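 Potency is reported as pIC50, derived from concentration-dependent reduction of pSMAD3 AlphaLISA signal against TGF-β-stimulated cells without compound. BEAS-2B cells received compound for 1 h before a 30-min stimulation with 10 ng/mL TGF-β.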

Each structure is given as a SMILES string. Bounds are passed on as bounds.

`CNCc1cncc(-c2cnc3ccc(-c4nc[nH]c4-c4cccc(C)n4)cc3c2)c1` [Compound 342, N-methyl-1-[5-[6-[5-(6-methyl-2-pyridyl)-1H-imidazol-4-yl]-3-quinolyl]-3-pyridyl]methanamine]: in experiment [1], the Ki was 0.0398 to 0.316 nM. In addition, the IC50 in experiment [2] is 25.1 to 158 nM.
Taken in the same sequence, the figures for `Cc1cccc(-c2[nH]cnc2-c2ccc3ncc(C(=O)OC[C@H]4CCCNC4)cc3c2)n1` [Compound 772, [(3S)-3-piperidyl]methyl 6-[5-(6-methyl-2-pyridyl)-1H-imidazol-4-yl]quinoline-3-carboxylate] were 0.0398 to 0.316 nM and 25.1 to 158 nM.
The matching figures for `Cc1cccc(-c2n[nH]cc2-c2ccc3ncc(N4CC(C)NC(C)C4)cc3n2)n1` (stereo not shown) [Compound 28, 7-(3,5-dimethylpiperazin-1-yl)-2-[3-(6-methyl-2-pyridyl)-1H-pyrazol-4-yl]-1,5-naphthyridine]: less than 0.0316 nM and 25.1 to 158 nM.
On to `Cc1cccc(-c2[nH]ncc2-c2ccc3nccc(C(=O)O[C@H]4CC[C@@H](N)CC4)c3c2)n1` [Compound 1199, (4-aminocyclohexyl) 6-[5-(6-methyl-2-pyridyl)-1H-pyrazol-4-yl]quinoline-4-carboxylate], for which the Ki in experiment [1] was 3.98 to 31.6 nM. For the same compound, the IC50 in experiment [2] is 200 to 1260 nM.
As to `Cc1nc(-c2n[nH]cc2-c2ccc3ncc(-c4nnn5c4CNCC5)cc3n2)ccc1F` [Compound 466, 2-[3-(5-fluoro-6-methyl-2-pyridyl)-1H-pyrazol-4-yl]-7-(4,5,6,7-tetrahydrotriazolo[1,5-a]pyrazin-3-yl)-1,5-naphthyridine], the Ki in experiment [1] was 0.0398 to 0.316 nM. The IC50 in experiment [2] is 25.1 to 158 nM.
The matching figures for `Cc1cccc(-c2n[nH]cc2-c2ccc3ncc(C(=O)NCCN4CCOCC4)cc3n2)n1` [Compound 44, 6-[3-(6-methyl-2-pyridyl)-1H-pyrazol-4-yl]-N-(2-morpholinoethyl)-1,5-naphthyridine-3-carboxamide]: less than 0.0316 nM and 25.1 to 158 nM.
Taken in the same sequence, the figures for `CNCCn1ccc(-c2cnc3ccc(-c4nc[nH]c4-c4cccc(C)n4)cc3c2)n1` [Compound 494, N-methyl-2-[3-[6-[5-(6-methyl-2-pyridyl)-1H-imidazol-4-yl]-3-quinolyl]pyrazol-1-yl]ethanamine] were 0.0398 to 0.316 nM and 25.1 to 158 nM.
For `Cc1cccc(-c2[nH]cnc2-c2ccc3ncc(NC(=O)C4CN5CCN4CC5)cc3c2)n1` (stereo not shown) [Compound 406, N-[6-[5-(6-methyl-2-pyridyl)-1H-imidazol-4-yl]-3-quinolyl]-1,4-diazabicyclo[2.2.2]octane-2-carboxamide], the Ki in experiment [1] was 0.0398 to 0.316 nM. The IC50 in experiment [2] is 200 to 1260 nM.
The matching figures for `Cc1cccc(-c2[nH]cnc2-c2ccc3ncc(C(=O)OC[C@@H]4CCC[C@H](N)C4)cc3c2)n1` (racemic) [Compound 767, [rac-(1R,3S)-3-aminocyclohexyl]methyl 6-[5-(6-methyl-2-pyridyl)-1H-imidazol-4-yl]quinoline-3-carboxylate]: 0.0398 to 0.316 nM and 25.1 to 158 nM.
The matching figures for `Cc1cccc(-c2n[nH]cc2-c2ccc3ncc(-c4ccc(N)nc4)cc3n2)n1` [Compound 562, 5-[6-[3-(6-methyl-2-pyridyl)-1H-pyrazol-4-yl]-1,5-naphthyridin-3-yl]pyridin-2-amine]: less than 0.0316 nM and less than 20 nM.
On to `Cc1cccc(-c2n[nH]cc2-c2ccc3ncc(-c4nnn5c4CNCC5)cc3c2)n1` [Compound 343, 6-[3-(6-methyl-2-pyridyl)-1H-pyrazol-4-yl]-3-(4,5,6,7-tetrahydrotriazolo[1,5-a]pyrazin-3-yl)quinoline], for which the Ki in experiment [1] is 0.0398 to 0.316 nM. For the same compound, the IC50 in experiment [2] is 25.1 to 158 nM.
As to `Cc1cccc(-c2[nH]cnc2-c2ccc3ncc(-c4cnn(CCN)c4)cc3c2)n1` [Compound 572, 2-[4-[6-[5-(6-methyl-2-pyridyl)-1H-imidazol-4-yl]-3-quinolyl]pyrazol-1-yl]ethanamine], in experiment [1], the Ki is 0.0398 to 0.316 nM. Also, in experiment [2], the IC50 was 25.1 to 158 nM.
With `Cc1cccc(-c2[nH]cnc2-c2ccc3nccc(C4CCCN4)c3c2)n1` (stereo not shown) [Compound 154, 6-[5-(6-methyl-2-pyridyl)-1H-imidazol-4-yl]-4-pyrrolidin-2-yl-quinoline], in experiment [1], the Ki was 3.98 to 31.6 nM. Further, the IC50 in experiment [2] is 200 to 1260 nM.
As to `Cc1cccc(-c2[nH]cnc2-c2ccc3ncc(C4=CCC5(CCNC(=O)C5)CC4)cc3c2)n1` (stereo not shown) [Compound 1206, 9-[6-[5-(6-methyl-2-pyridyl)-1H-imidazol-4-yl]-3-quinolyl]-3-azaspiro[5.5]undec-9-en-4-one], the Ki in experiment [1] was less than 0.0316 nM. Besides, in experiment [2], the IC50 is 25.1 to 158 nM.
Consider `Cc1cccc(-c2[nH]cnc2-c2ccc3nccc(C(=O)O[C@H]4CC[C@](C)(N)CC4)c3c2)n1` [Compound 1209, (4-amino-4-methyl-cyclohexyl) 6-[5-(6-methyl-2-pyridyl)-1H-imidazol-4-yl]quinoline-4-carboxylate], for which, in experiment [1], the Ki was 0.398 to 3.16 nM. In addition, the IC50 in experiment [2] was 25.1 to 158 nM.
Taken in the same sequence, the figures for `CNCCn1cc(-c2cnc3ccc(-c4nc[nH]c4-c4cccc(C)n4)nc3c2)cn1` [Compound 408, N-methyl-2-[4-[6-[5-(6-methyl-2-pyridyl)-1H-imidazol-4-yl]-1,5-naphthyridin-3-yl]pyrazol-1-yl]ethanamine] were 0.0398 to 0.316 nM and 25.1 to 158 nM.
Regarding `CNCCn1cc(-c2cnc3ccc(-c4c(-c5cccc(C)n5)nnn4Cc4ccccc4)cc3c2)cn1` [Compound 498, 2-[4-[6-[3-benzyl-5-(6-methyl-2-pyridyl)triazol-4-yl]-3-quinolyl]pyrazol-1-yl]-N-methyl-ethanamine], the Ki in experiment [1] is 0.0398 to 0.316 nM. Moreover, the IC50 in experiment [2] was 25.1 to 158 nM.
The matching figures for `Cc1cccc(-c2n[nH]cc2-c2ccc3nccc(CN(C)C)c3n2)n1` [Compound 830, N,N-dimethyl-1-[6-[3-(6-methyl-2-pyridyl)-1H-pyrazol-4-yl]-1,5-naphthyridin-4-yl]methanamine]: 3.98 to 31.6 nM and 25.1 to 158 nM.
The matching figures for `Cc1nc(-c2nc3ccccn3c2-c2ccc3ncc(N4CCNCC4)cc3n2)ccc1F` [Compound 2, 2-[2-(5-fluoro-6-methyl-2-pyridyl)imidazo[1,2-a]pyridin-3-yl]-7-piperazin-1-yl-1,5-naphthyridine]: 0.0398 to 0.316 nM and 25.1 to 158 nM.
The matching figures for `Cc1nc(-c2n[nH]cc2-c2ccc3ncc(-c4cnn(C5CCCNC5)c4)cc3c2)ccc1F` (stereo not shown) [Compound 458, 6-[3-(5-fluoro-6-methyl-2-pyridyl)-1H-pyrazol-4-yl]-3-[1-(3-piperidyl)pyrazol-4-yl]quinoline]: less than 0.0316 nM and less than 20 nM.
Turning to `Cc1nc(-c2n[nH]cc2-c2ccc3ncc(-c4cnn5c4NCC5)cc3n2)ccc1F` [Compound 534, 7-(2,3-dihydro-1H-imidazo[1,2-b]pyrazol-7-yl)-2-[3-(5-fluoro-6-methyl-2-pyridyl)-1H-pyrazol-4-yl]-1,5-naphthyridine], the Ki in experiment [1] was less than 0.0316 nM. In addition, the IC50 in experiment [2] was less than 20 nM.
Consider `Cc1cccc(-c2[nH]cnc2-c2ccc3ncc(N4CCC(C(=O)OC5CCNCC5)CC4)cc3c2)n1` [Compound 701, piperidin-4-yl 1-(6-(5-(6-methylpyridin-2-yl)-1H-imidazol-4-yl)quinolin-3-yl)piperidine-4-carboxylate], for which, in experiment [1], the Ki is 0.0398 to 0.316 nM. For the same compound, in experiment [2], the IC50 is 200 to 1260 nM.
In the case of `Cc1cccc(-c2[nH]cnc2-c2ccc3ncc(-c4ccc(C(=O)O[C@H]5CCN(C)C5)cc4)cc3c2)n1` [Compound 545, [(3S)-1-methylpyrrolidin-3-yl] 4-[6-[5-(6-methyl-2-pyridyl)-1H-imidazol-4-yl]-3-quinolyl]benzoate], the Ki in experiment [1] is 0.0398 to 0.316 nM. The IC50 in experiment [2] is 25.1 to 158 nM.
Taken in the same sequence, the figures for `Cc1cccc(-c2[nH]cnc2-c2ccc3ncc(-c4ncc(C(=O)O)s4)cc3c2)n1` [Compound 1017, 2-(6-(5-(6-methylpyridin-2-yl)-1H-imidazol-4-yl)quinolin-3-yl)thiazole-5-carboxylic acid] were 0.0398 to 0.316 nM and 1580 to 10000 nM.
The matching figures for `Cc1cccc(-c2n[nH]cc2-c2ccc3ncc(Br)cc3n2)n1` [Compound 323, 7-bromo-2-[3-(6-methyl-2-pyridyl)-1H-pyrazol-4-yl]-1,5-naphthyridine]: 0.0398 to 0.316 nM and less than 20 nM.
As to `Cc1cccc(-c2[nH]cnc2-c2ccc3ncc(-c4ccc(C(=O)OC[C@H]5CCCNC5)cn4)cc3c2)n1` [Compound 1224, [(3S)-3-piperidyl]methyl 6-[6-[5-(6-methyl-2-pyridyl)-1H-imidazol-4-yl]-3-quinolyl]pyridine-3-carboxylate], the Ki in experiment [1] was 0.0398 to 0.316 nM. The IC50 in experiment [2] is 25.1 to 158 nM.

The record behind these values is patent US11590116B2 (THERAVANCE BIOPHARMA R&D IP, LLC, priority 2019, dated 2023).
